Assay results taken from patent US10117848B2, “Highly water-soluble salts of a short acting phenylalkylamine calcium channel blocker and uses thereof” (Milestone Pharmaceuticals Inc., priority 2015, dated 2018).

Columns and labels:
[1] = tested on: patients treated for an episode of PSVT; settings: intravenous; cited from earlier work
[2] = tested on: patients suffering from an episode of PSVT; assay: Nasal administration of acetate salt solutions to patients in a PSVT episode, monitored by electrocardiography; format: in vivo, human
Excerpt: A common method of measuring the effectiveness of a therapeutic agent in terminating an episode of a cardiac arrhythmia, such as PSVT, is by analysis of an electrocardiogram (ECG) recorded from a patient experiencing such an episode. […] One of the key features of healthy cardiac signaling is a temporal delay between the initiation of atrial and ventricular action potentials. A delay between signaling in the atria and ventricles is necessary for efficient pumping of blood. Signaling in the atria must proceed first, such that all blood in the atrial chambers is expelled into the ventricles before the ventricles contract. […]
It has been shown that an increase of at least 10% in the PR segment of an […] recorded from a patient suffering from a cardiac arrhythmia correlates well with a termination of the PSVT episode. […] The solutions that were administered to patients contained varying concentrations of the acetate salt of compound I. During the study, a solution containing a particular concentration of the acetate salt of compound I was administered to a patient experiencing an episode of PSVT, and the patient was monitored by electrocardiography throughout the duration of the experiment. […]

[3] = Solubility in aqueous solution; format: physicochemical; settings: acid addition salts of compound I
[4] = Homogeneity (no observable precipitation) of concentrated aqueous solutions on storage; format: physicochemical
nasal epithelium = assay: Permeation through the nasal epithelium with EDTA; settings: use of EDTA in the formulation
Excerpt: The nasal vestibule, which accounts for approximately 3-4% of the surface area of the nasal cavity, lacks tight junctions altogether and is thus not affected by calcium chelating agents. […] As such, it has been postulated that the nasal epithelium is not susceptible to permeability modulation by EDTA (Aungst, et al., Pharma. Res., 1998, 5:305-308). Additionally, the ability of EDTA to increase permeation of a compound through the nasal epithelium is attenuated as the molecular weight of the compound increases (Nakanishi, et al., Chem. Pharm. Bull., 1984, 32:1628-1632).

[5] = tested on: patients suffering from an episode of PSVT; settings: therapeutic dose, intravenous; cited from earlier work
[6] = 300 mg/mL, 1 eq methanesulfonic acid, 10 mM sodium acetate, 5 mM disodium EDTA, pH 4.5
[7] = 350 mg/mL, 1 eq acetic acid, pH 4.5 with 3.6 M sulfuric acid
[8] = 400 mg/mL, 1 eq methanesulfonic acid, 10 mM sodium acetate, 5 mM disodium EDTA, pH 4.5

## OC[C@H]1O[C@@H](n2cnc3c(N[C@@H]4CCOC4)ncnc32)[C@H](O)[C@@H]1O [tecadenoson]
[1]
  average PR prolongation: 8.5%
  efficacy of PSVT termination: approximately 86%
  patients treated who experienced relief from an episode of PSVT: 32 out of 37

## CC(=O)O.COC(=O)c1cccc(CCN(C)CCC[C@@](C#N)(c2ccc(OC)c(OC)c2)C(C)C)c1 [acetate salt of compound I]
[2]; solutions containing 60 mg or greater of compound I, patients experiencing a PSVT episode, ECG
  median PR prolongation: greater than 10%
[3]
  solubility in aqueous solution: high solubility

## COC(=O)c1cccc(CCN(C)CCCC(C#N)(c2ccc(OC)c(OC)c2)C(C)C)c1 (stereo not shown) [compound I, methyl 3-(2-((4-cyano-4-(3,4-dimethoxyphenyl)-5-methylhexyl)(methyl)amino)ethyl)benzoate]
[4]; [6]
  homogeneity at 2-5° C.: remains homogeneous
  homogeneity at room temperature: remains homogeneous
  time solution remains homogeneous at 0° C.: at least 7 days
[4]; [7]
  homogeneity at room temperature: remains homogeneous
  time solution remains homogeneous at 10° C.: at least 3 days
[4]; [8]
  homogeneity at 2-5° C.: remains homogeneous
  homogeneity at room temperature: remains homogeneous
  time solution remains homogeneous at 0° C.: at least 7 days
[4]; highly concentrated solutions, 0.5-1.5 molar equivalents of acetic acid or methanesulfonic acid
  homogeneity at room temperature: remain homogeneous
[4]; over 500 mg/mL, 1 eq acetic acid, pH 4.5 with 3.6 M sulfuric acid
  homogeneity at room temperature: remains homogeneous
Nasal epithelium
  permeation through the nasal epithelium: increased the permeation
[2]; dosage containing 60 mg of compound I
  effectiveness in terminating an episode of PSVT: therapeutically effective

## COc1ccc(CCN(C)CCCC(C#N)(c2ccc(OC)c(OC)c2)C(C)C)cc1OC (stereo not shown) [verapamil, 2-(3,4-dimethoxyphenyl)-5-[2-(3,4-dimethoxyphenyl)ethyl-methylamino]-2-propan-2-ylpentanenitrile]
[5]
  PR prolongation: at least 10%
  efficacy for terminating the PSVT episode: 85-90%
